In paper PMC9324693, “α-Hydroxylactams as Efficient Entries to Diversely Functionalized Ferrociphenols: Synthesis and Antiproliferative Activity Studies” (Molecules, 2022):

What was measured:
[1] = Solubility tests by shaking suspensions and RP-HPLC analysis of supernatants; type: physicochemical; conditions: for solubility in aqueous medium: water or PBS, shaken overnight at room temperature, RP-HPLC of supernatants, theoretical concentration 1 mM
Experimental: Due to water insolubility being a known issue for the ferrocidiphenol family, we exploited this strategy to attach substituents that could increase their solubility in a biologically relevant context. Thus, attaching short and monodisperse PEG chains seemed interesting. The tetraethylene glycol chain was readily grafted to A to afford 22 in 79% yield at room temperature in less than 3 h.
Figure S50: Solubility studies by RP-HPLC analysis of compounds 18 (A), 20 (B) and […]
A given amount of compounds 18, 20 and 22 was weighted and suspended in a given volume of tested solvent (DMSO, MeOH, PBS and H2O) to reach a theoretical concentration of 1 mM. Suspensions were sonicated for 1 min and shaken at R.T. for 18 h. The resulting solutions were filtrated (pore size 0.2 µm) and diluted to 100 µM in MeCN (for the solutions in organic solvents). HPLC analysis was performed on Nucleodur C18 column, (100 Å , 5 µm, 4.6 x 150 mm, Macherey-Nagel) using […]
(also on this page, place not known: MeOH DMSO PBS – H2O A PBS MeOH DMSO PBS B H2O MeOH DMSO PBS – H2O C) […]

[2] = tested on: MDA-MB-231; assay: MTT cell viability assay on MDA-MB-231 cells; type: cell-based; conditions: for EC50: 96-well plates, 4000 cells/well, viability after 3 days by MTT, mean ± SD of three independent experiments
Experimental: (§1) A prerequisite to further bioorthogonal modifications is to preserve the biological properties of ferrociphenol compounds. Then, the impact of some of the grafted substituents on the antiproliferative activity was examined by a classical MTT cell viability assay on the two breast cancer cell lines MDA-MB-231 and MCF-7 as well as on the non-tumorigenic cell line hTERT-RPE1 (Table 3). The two cancer cell lines were chosen since most of the previously reported data on ferrocifens were carried out on these cellular models. The experimental protocol is described in Section 3.14., and it is important to emphasize here that the EC50 values reported in Table 3 are not to be compared to the IC50 values reported in the literature, since the assay conditions are different. For this reason, we included as a reference the ferrocenyl derivative of hydroxytamoxifen Fc-OH-TAM-3 [8] that is known to be cytotoxic to numerous cell lines. […] This feature was taken into account when performing data fitting.
(§2) MDA-MB-231, MCF-7, and hTERT-RPE1 cells were obtained from ATCC. Cells were maintained in a monolayer culture in DMEM with phenol red with Glutamax I (MDA-MB-231) or 2 mM L-glutamine (MCF-7) or 15 mM HEPES (hTERT-RPE1) supplemented with 10% FBS at 37 °C in a humidified atmosphere and 5% CO2. Stock solutions of the complexes were prepared in DMSO. Cells were seeded in 96-well plates at a density of 4000 cells/well. After overnight attachment, a dilution series of the compounds were added in the medium, and cells were incubated for a further 72 h. […] Cell viability was evaluated by using a colorimetric method based on the tetrazolium salt MTT [3-(4,5-dimethylthiazol-2-yl)-2,5-diphenyltetrazolium bromide], which is reduced by viable cells to yield purple formazan crystals. After 72 h, the medium was removed and the cells were incubated with MTT solution in PBS (10 μL of a 5 mg/mL) for 2–3 h of incubation. The formed purple formazan crystals were dissolved in 100 μL DMSO by thorough shaking, and the absorbance at 560 nm was read using a microplate reader (FLUOstar OPTIMA, BMG Labtech, Ortenberg, Germany). Each test was performed with at least three replicates and repeated at least three times. EC50 were determined using Dr Fit software.

[3] = tested on: MCF-7; assay: MTT cell viability assay on MCF-7 cells; type: cell-based; conditions: for EC50: 96-well plates, 4000 cells/well, viability after 3 days by MTT, mean ± SD of three independent experiments
Experimental: as §1, §2

[4] = tested on: hTERT-RPE1; assay: MTT cell viability assay on non-tumorigenic hTERT-RPE1 cells; type: cell-based; conditions: for EC50: 96-well plates, 4000 cells/well, viability after 3 days by MTT, mean ± SD of three independent experiments; for toxicity on hTERT-RPE1 compared with MCF-7: comparison of EC50 values
Experimental: as §1, §2

[5] = target: T1, HRP (Armoracia rusticana, UniProt P00433); assay: Enzymatic oxidation with HRP and H2O2; type: biochemical; conditions: fourfold molar excess of H2O2, HRP, pH 8.1; λmax 571–572 nm
T1 construct: purchased
T1 sequence (P00433 31-338 limits assumed): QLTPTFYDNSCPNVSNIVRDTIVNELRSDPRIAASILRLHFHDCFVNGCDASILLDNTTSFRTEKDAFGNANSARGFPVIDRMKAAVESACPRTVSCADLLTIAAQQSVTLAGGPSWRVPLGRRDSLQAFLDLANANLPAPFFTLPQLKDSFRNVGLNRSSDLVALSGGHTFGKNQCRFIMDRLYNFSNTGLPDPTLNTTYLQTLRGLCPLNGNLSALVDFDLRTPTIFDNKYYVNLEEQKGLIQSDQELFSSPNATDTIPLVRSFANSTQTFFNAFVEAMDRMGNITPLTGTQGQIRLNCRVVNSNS
Experimental: Enzymatic oxidation of 19, 20, 22, 23, and 25 was performed with a fourfold molar excess of H2O2 in the presence of HRP at pH 8.1. […] This behavior is reminiscent of that previously observed for a structurally related diphenol complex, which lets us conclude that enzymatic oxidation of 19, 20, 22, 23, and 25 affords the corresponding quinone methide in the anionic phenolate form, regardless of the substituent grafted from the phthalimide ring.
Figure S51. UV-vis spectra of compounds 19, 20, 22, 23 and 25 (50 µM) treated by HRP (46 nM) and H2O2 (200 µM) in 0.2 M TRIS buffer pH 8.1. Conversion to the phenolate form of the quinone methides is assessed by the appearance of the characteristic bands at ca. 570 and 360 nm. […]

[6] = tested on: triple negative breast cancer cell line MDA-MB-231; conditions: measured after 5 days of incubation (stated for B and C); cited from earlier work
[7] = tested on: NCI-60 panel of human cancer cells; design: method as in PMID 30977944; conditions: read-out: mean GI50 (half maximal growth inhibition); cited from earlier work
[8] = tested on: glioblastoma cell model U87; design: method as in PMID 26136201; conditions: cited from earlier work

With “O-{2,3-Dihydro-2-[4-ferrocenyl-5,5-bis-(4-hydroxyphenyl)-pent-4-enyl]-1H-isoindol-1-one-3-yl}-24-azido-1,4,7,10,13,16,19,22-octaoxatetracosane [Compound 24]” the “solubility in aqueous medium” value [1] was “none of these compounds were soluble in aqueous medium”.
With `O=C1c2ccccc2C(CCCCCCO)N1CCCC(=C(c1ccc(O)cc1)c1ccc(O)cc1)[c-]1cccc1.[Fe+2].c1cc[cH-]c1` (stereo not drawn) [Compound 21, 2,3-Dihydro-3-(6-hydroxyhexyl)-2-[4-ferrocenyl-5,5-bis-(4-hydroxyphenyl)-pent-4-enyl]-1H-isoindol-1-one] the “solubility in organic solvents” value [1] was “improved the solubility in organic solvents including DCM”.
For `O=C1c2ccccc2C(=O)N1CCCC[c-]1cccc1.[Fe+2].c1cc[cH-]c1` [Compound 3h, N-(4-ferrocenylbutyl) Phthalimide], the EC50 [2] was greater than 50 µM, the “inhibition of cell growth, MDA-MB-231” value ([2]; MTT, 72 h) was “did not inhibit cell growth” and the EC50 [3] was greater than 50 µM. The “inhibition of cell growth, MCF-7” value ([3]; MTT, 72 h) was “did not inhibit cell growth”, the EC50 [4] was greater than 50 µM and the “inhibition of cell growth, hTERT-RPE1” value ([4]; MTT, 72 h) was “did not inhibit cell growth”.
With `C#CCCCC1c2ccccc2C(=O)N1CCCC(=C(c1ccc(O)cc1)c1ccc(O)cc1)[c-]1cccc1.[Fe+2].c1cc[cH-]c1` (stereo not drawn) [Compound 23, 2,3-Dihydro-3-(pent-4-ynyl)-2-[4-ferrocenyl-5,5-bis-(4-hydroxyphenyl)-pent-4-enyl]-1H-isoindol-1-one] the EC50 [2] was 2.4 ± 0.5 µM, the EC50 [3] was 4.2 ± 0.7 µM and the EC50 [4] was 12.9 ± 3.3 µM. For the same molecule, the “selectivity: less toxic on hTERT-RPE1 with respect to MCF-7” value ([4]; ratio of EC50 values) was 3 fold and the “enzymatic oxidation to quinone methide” value [5] was “rapidly converted to bright pink adducts”.
For `O=C1CCC(=O)N1CCCC(=C(c1ccc(O)cc1)c1ccc(O)cc1)[c-]1cccc1.[Fe+2].c1cc[cH-]c1` [Compound B], the IC50 [6] is given as 0.035 µM and the GI50 [7] is given as roughly 0.1 µM.
For “2,3-Dihydro-3-(2-methoxycarbonylethylthio)-2-[4-ferrocenyl-5,5-bis-(4-hydroxyphenyl)-ent-4-enyl]-1H-isoindol-1-one [Compound 25]”, the EC50 [2] was 18 ± 0.4 µM, the EC50 [3] was 4.7 ± 1.4 µM and the EC50 [4] was 9.1 ± 0.4 µM. The “toxicity on hTERT-RPE1 compared with MCF-7” value [4] was “twice more toxic” and the “enzymatic oxidation to quinone methide” value [5] was “rapidly converted to bright pink adducts”.
With `COCCOCCOCCOCCOCCOCCOCCSC1c2ccccc2C(=O)N1CCCC(=C(c1ccc(O)cc1)c1ccc(O)cc1)[c-]1cccc1.[Fe+2].c1cc[cH-]c1` (stereo not drawn) [Compound 27, S-{2,3-Dihydro-2-[4-ferrocenyl-5,5-bis-(4-hydroxyphenyl)-pent-4-enyl]-1H-isoindol-1-one-3-yl}-1-thia-4,7,10,13,16,19,22-heptaoxatricosane] the “solubility in aqueous medium” value [1] was “none of these compounds were soluble in aqueous medium”.
For `O=C1c2ccccc2C(=O)N1CCCC(=C(c1ccc(O)cc1)c1ccc(O)cc1)[c-]1cccc1.[Fe+2].c1cc[cH-]c1` [A], the IC50 [8] is listed as 0.018 µM and the IC50 [6] is listed as 0.145 µM.
`O=C1c2ccccc2C(CCO)N1CCCC(=C(c1ccc(O)cc1)c1ccc(O)cc1)[c-]1cccc1.[Fe+2].c1cc[cH-]c1` (stereo not drawn) [Compound 20, 2,3-Dihydro-3-(2-hydroxyethyl)-2-[4-ferrocenyl-5,5-bis-(4-hydroxyphenyl)-pent-4-enyl]-1H-isoindol-1-one] gave an EC50 [2] of 6.3 ± 2.1 µM, an EC50 [3] of 10.6 ± 0.3 µM and an EC50 [4] of 5 ± 0.2 µM. The “toxicity on hTERT-RPE1 compared with MCF-7” value [4] was “twice more toxic”, the “solubility in organic solvents” value [1] was “poorly soluble in organic solvents, except for DMSO” and the “solubility in aqueous medium” value [1] was “none of these compounds were soluble in aqueous medium”. The “enzymatic oxidation to quinone methide” value [5] was “rapidly converted to bright pink adducts”.
`O=C1c2ccccc2C(OCCOCCOCCOCCO)N1CCCC(=C(c1ccc(O)cc1)c1ccc(O)cc1)[c-]1cccc1.[Fe+2].c1cc[cH-]c1` (stereo not drawn) [Compound 22, O-{2,3-Dihydro-2-[4-ferrocenyl-5,5-bis-(4-hydroxyphenyl)-pent-4-enyl]-1H-isoindol-1-one-3-yl}-12-hydroxy-1,4,7,10-tetraoxadodecane] showed an EC50 [2] of 8.8 ± 2.5 µM, an EC50 [3] of 29.9 ± 1.3 µM and an EC50 [4] of 24.7 ± 1.1 µM. The “toxicity on hTERT-RPE1 compared with MCF-7” value [4] was “similar”, the “solubility in aqueous medium” value [1] was “none of these compounds were soluble in aqueous medium” and the “enzymatic oxidation to quinone methide” value [5] was “rapidly converted to bright pink adducts”.
